# Values joined by “and” are separate entries in the source; they are usually repeats but may differ in a detail not shown here. Identical values can stand only once.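 Cells were grown in 96-well plates and exposed to each compound for 48 hours at five concentrations; endpoints were interpolated linearly between bracketing concentrations, or set to the highest concentration if not reached. GI50: concentration for 50% inhibition of growth. TGI marks complete inhibition of growth.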
# What was measured:
# Assay in all cases: inhibition of tumour cell growth, NCI panel, 48 h
# MOLT-4 leukemia = tested on: MOLT-4 leukemia
# MDA-MB-435 = tested on: MDA-MB-435
# UACC-257 melanoma = tested on: UACC-257 melanoma
# DU-145 prostate = tested on: DU-145 prostate
# COLO 205 colon = tested on: COLO 205 colon
# SNB-75 CNS = tested on: SNB-75 CNS
# OVCAR-4 ovarian = tested on: OVCAR-4 ovarian
# PC-3 prostate = tested on: PC-3 prostate
# SK-MEL-2 melanoma = tested on: SK-MEL-2 melanoma
# HS 578T breast = tested on: HS 578T breast
Structure (SMILES),GI50 (MOLT-4 leukemia) [µM],TGI (MOLT-4 leukemia),GI50 (MDA-MB-435),TGI (MDA-MB-435),GI50 (UACC-257 melanoma) [µM],TGI (UACC-257 melanoma),GI50 (DU-145 prostate),TGI (DU-145 prostate) [µM],GI50 (COLO 205 colon),TGI (COLO 205 colon),GI50 (SNB-75 CNS),TGI (SNB-75 CNS),GI50 (OVCAR-4 ovarian),TGI (OVCAR-4 ovarian),GI50 (PC-3 prostate) [µM],TGI (PC-3 prostate),GI50 (SK-MEL-2 melanoma),TGI (SK-MEL-2 melanoma) [µM],GI50 (HS 578T breast) [µM],TGI (HS 578T breast) [µM]
COc1ccc2c(c1)/C(=C\c1c(-c3ccccc3)nc3sccn13)C(=O)N2,12.5,> 44.5 µM,0.04 µM,0.287 µM,28.7,89.3 µM,3.01 µM,12.6,18.7 µM,45.8 µM,7.16 µM,23.5 µM,15.6 µM,> 96.8 µM,9.55,> 35.6 µM,18 µM,44.5,–,–
CCCCSC1CCSc2c1ccc1ccccc21 (centres undefined),–,> 100 µM,–,–,–,–,–,–,–,> 100 µM,–,–,–,> 100 µM,–,–,–,> 100,–,–
CCCC[C@H](CCc1ccccc1)N(C(=O)OC)N1CCC[C@H]1COC,–,> 100 µM,–,–,–,36.2 µM,–,–,–,30.8 µM,–,79.1 µM,–,39.9 µM,–,–,–,34.1,–,–
COc1cc(/C=C/C(=O)c2ccccc2O)ccc1OCCCOc1cc2c(cc1OC)C(=O)N1CCC[C@H]1C=N2,0.017,0.0572 µM,–,–,0.158,0.527 µM,0.0351 µM,0.452,0.0348 µM,0.144 µM,0.0468 µM,0.222 µM,0.116 µM,15.2 µM,0.0541,7.51 µM,0.0999 µM,0.392,0.054,0.284
O=C(N/C(=C\c1cccc([N+](=O)[O-])c1)c1nc2c3c(ccc2[nH]1)C(=O)c1ccccc1C3=O)c1ccccc1,–,–,–,–,–,–,–,–,–,–,–,> 100 µM,–,–,–,–,–,> 100,–,–
O=C(O)C(Cc1ccccc1)N=Cc1nc(-c2ccccc2)oc1O (centres undefined),–,> 100 µM,–,–,–,> 100 µM,–,–,–,> 100 µM,–,> 100 µM,–,> 100 µM,–,–,–,> 100,–,–
COC(=O)[C@@H](C)C[C@H](Cc1ccccc1)NC(=O)c1csc([C@@H](C[C@H](C(C)C)N(C)C(=O)[C@@H](NC(=O)[C@H]2CCCCN2C)c2ccc(F)cc2)OC(C)=O)n1,–,8.45 µM and 54.4 µM,0.00081 µM,0.00514 µM and 0.0274 µM,–,> 100 µM,–,–,0.0113 µM and 0.0379 µM,0.127 µM and 0.526 µM,–,17.6 µM and 61.3 µM,–,25 µM and > 100 µM,–,25 µM and 28.3 µM,0.00682 µM and 0.0293 µM,> 100,–,> 100
CSc1nc2c(nc(N)n2C2OC(CO)C(O)C(O)C2O)c(=O)[nH]1 (centres undefined),–,> 100 µM,–,–,–,> 100 µM,–,–,–,> 100 µM,–,> 100 µM,–,> 100 µM,–,–,–,–,–,–
Clc1ccc(-c2nnc(-c3nn(-c4ccccc4)c4nc5ccccc5nc34)o2)cc1,–,81.6 µM,–,–,–,> 100 µM,–,–,–,> 100 µM,–,> 100 µM,–,> 100 µM,–,–,–,> 100,–,–
NCCCNCc1c2ccccc2c(CNCCCN)c2ccccc12,–,43.9 µM,–,–,–,45.1 µM,–,–,–,22.8 µM,–,44 µM,–,26.5 µM,–,–,–,28.2,–,–
C/C(COc1ccc2oc(-c3ccccc3)cc(=O)c2c1)=N\O,89.2,> 100 µM,0.556 µM,2.94 µM,> 100,> 100 µM,48.5 µM,> 100,11.8 µM,52.9 µM,> 100 µM,> 100 µM,> 100 µM,> 100 µM,26.6,70.5 µM,> 100 µM,> 100,–,–
Oc1ccc(O)c(-n2cccn2)c1,–,59.5 µM,–,–,–,–,–,–,–,46.2 µM,–,> 100 µM,–,> 100 µM,–,–,–,95.7,–,–
CC(C)(C)OC(=O)NC(Cc1ccccc1)C(=S)N1CCCC1 (centres undefined),–,> 100 µM,–,–,–,> 100 µM,–,–,–,> 100 µM,–,> 100 µM,–,> 100 µM,–,–,–,> 100,–,–
CC1(C)N=C(N)N=C(N)N1c1cccc(CCCCc2ccc(Cl)c(S(=O)(=O)F)c2)c1,1.82,19.2 µM,0.445 µM,15.7 µM,1.14,18.7 µM,4.09 µM,17.1,1.75 µM,18.6 µM,10.3 µM,22.4 µM,11.8 µM,29.6 µM,–,–,8.53 µM,25.4,12.6,35.9
C=CCN=C1NC(=O)C(CC(=O)Nc2cccc(Cl)c2)S1 (centres undefined),–,> 100 µM,–,–,–,> 100 µM,–,–,–,> 100 µM,–,> 100 µM,–,> 100 µM,–,–,–,> 100,–,–
C/C(=N\NC(=O)c1ccccc1O)c1c(O)cc(C)oc1=O,–,> 100 µM,–,–,–,> 100 µM,–,–,–,> 100 µM,–,> 100 µM,–,> 100 µM,–,–,–,> 100,–,–
O=C(NC1CCCCC1)NC12CC3CC(CC(F)(C3)C1)C2,–,> 100 µM,–,–,–,> 100 µM,–,–,–,> 100 µM,–,> 100 µM,–,–,–,–,–,> 100,–,–
C=CCC1(CN(C)C)CC/C(=C\c2cc(OC)c(OC)c(OC)c2)C1=O (centres undefined),–,78.8 µM,–,–,–,58.3 µM,–,–,–,31.3 µM,–,> 100 µM,–,50.4 µM,–,–,–,> 100,–,–
Oc1cccc2cccnc12,–,–,13.3 µM and 21.5 µM and 5.94 µM,> 100 µM,–,27.3 µM and > 100 µM and > 27.8 µM,20.9 µM and 68.8 µM and 18.2 µM,> 100,5.58 µM and 19.1 µM and 16.9 µM,40.3 µM and 67.7 µM and > 100 µM,44 µM and 18.4 µM,> 100 µM,6.13 µM and 19.9 µM and 3.37 µM,> 87.6 µM and 83.3 µM and > 100 µM,–,–,> 20.7 µM and 8.34 µM,> 74.5,> 100,> 100
Cc1cc2[nH]c(=O)c3c4ncccc4cn3c2cc1C,3.54,> 100 µM,–,–,–,–,4.13 µM,> 100,–,–,3.3 µM,15.7 µM,4.17 µM,> 100 µM,5.83,> 100 µM,5.69 µM,40.3,5.93,52.2
CCCC(=O)Oc1ccc(/C=N/NC(N)=S)nc1,–,> 100 µM,–,–,–,> 100 µM,–,–,–,> 100 µM,–,> 100 µM,–,> 100 µM,–,–,–,> 100,–,–
C=C(C)[C@@H]1C/C=C(/COC(C)=O)CC[C@H]2O[C@@]2(C)CC/C=C(\C)CC1,28.4,82.3 µM,> 100 µM,> 100 µM,–,–,> 100 µM,> 100,> 100 µM,> 100 µM,–,–,> 100 µM,> 100 µM,> 100,> 100 µM,> 100 µM,> 100,> 100,> 100
